ChEMBL document CHEMBL5143555, “Potentiating the intracellular killing of Staphylococcus aureus by dihydroquinazoline analogues as NorA efflux pump inhibitor” (Bioorg Med Chem, 2022)
Converted amounts (≈) assume the structure as drawn. The source made the active and inactive calls. The rule behind the calls is not given here.

Columns and labels:
Staphylococcus aureus [1] = experiment: Antibacterial activity against Staphylococcus aureus 1199 measured after 24 hrs by Muller Hinton broth based MTT assay; type: functional
[2] = target: T1, Quinolone resistance protein NorA (Staphylococcus aureus) (UniProt P0A0J7); experiment: Inhibition of NorA in Staphylococcus aureus 1199B assessed as potentiation of ethidium bromide-induced antibacterial activity by measuring ethidium bromide MIC at sub MIC relative to ethidium bromide MIC alone
T1 sequence (whole entry): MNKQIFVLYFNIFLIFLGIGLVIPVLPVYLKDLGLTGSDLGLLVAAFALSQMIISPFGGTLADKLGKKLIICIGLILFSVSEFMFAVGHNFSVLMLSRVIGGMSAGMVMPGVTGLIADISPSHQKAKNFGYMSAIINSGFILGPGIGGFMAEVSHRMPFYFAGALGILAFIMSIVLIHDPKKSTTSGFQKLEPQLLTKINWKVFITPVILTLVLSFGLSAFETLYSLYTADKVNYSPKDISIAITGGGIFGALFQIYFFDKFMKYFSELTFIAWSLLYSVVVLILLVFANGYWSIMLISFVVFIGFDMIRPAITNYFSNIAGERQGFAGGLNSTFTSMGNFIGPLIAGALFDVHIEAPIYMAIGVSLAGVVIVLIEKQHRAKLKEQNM

Staphylococcus aureus [3] = experiment: Down regulation of NorA gene expression in Staphylococcus aureus 1199B at 3.9 ug/ml measured after 2 hrs by qRT-PCR analysis; type: functional; settings: dose 3.9 µg/ml
Staphylococcus aureus [4] = experiment: Down regulation of NorA gene expression in Staphylococcus aureus 1199B at 1.55 ug/ml measured after 2 hrs in presence of norfloxacin by qRT-PCR analysis relative to norfloxacin; type: functional; settings: dose 1.55 µg/ml
Staphylococcus aureus [5] = experiment: Antibacterial activity against Staphylococcus aureus 1199B measured after 24 hrs by Muller Hinton broth based MTT assay; type: functional
[6] = target: T1, Quinolone resistance protein NorA (Staphylococcus aureus); experiment: Inhibition of NorA in Staphylococcus aureus 1199B infected human THP-1 cells assessed as potentiation of norfloxacin-induced bactericidal activity by measuring reduction in bacterial count at modulatory concentration measured after 24 hrs relative to control; type: cell-based
[7] = target: T1, Quinolone resistance protein NorA (Staphylococcus aureus); experiment: Inhibition of NorA in Staphylococcus aureus 1199B infected human THP-1 cells assessed as potentiation of norfloxacin-induced bactericidal activity by measuring reduction in intracellular invasion at modulatory concentration measured after 24 hrs; type: cell-based
[8] = target: T1, Quinolone resistance protein NorA (Staphylococcus aureus); experiment: Inhibition of NorA in Staphylococcus aureus 1199B assessed as potentiation of norfloxacin-induced antibacterial activity by measuring fractional inhibitory concentration
[9] = target: T1, Quinolone resistance protein NorA (Staphylococcus aureus); experiment: Inhibition of NorA in Staphylococcus aureus 1199B assessed as accumulation of ethidium bromide at 3.9 ug/ml by measuring fluorescence intensity measured at 5 mins interval for 40 mins by fluorescence spectrophotometry; settings: dose 3.9 µg/ml
[10] = Cytotoxicity against kidney epithelial cells (unknown origin) assessed as cell viability at 50 ug/mL measured after 24 hrs by alamar blue assay relative to control; type: toxicity, cell-based, Fetal kidney cell; settings: at 50 µg/mL, read-out: Activity
[11] = target: T1, Quinolone resistance protein NorA (Staphylococcus aureus); experiment: Inhibition of NorA in Staphylococcus aureus 1199B assessed as potentiation of norfloxacin-induced antibacterial activity by measuring Norfloxacin MIC at sub MIC
[12] = target: T1, Quinolone resistance protein NorA (Staphylococcus aureus); experiment: Inhibition of NorA in Staphylococcus aureus 1199B assessed as accumulation of norfloxacin at 3.9 ug/ml by measuring fluorescence intensity measured at 5 mins interval for 40 mins by fluorescence spectrophotometry; settings: dose 3.9 µg/ml
[13] = target: T1, Quinolone resistance protein NorA (Staphylococcus aureus); experiment: Inhibition of NorA in Staphylococcus aureus 1199B assessed as potentiation of norfloxacin-induced antibacterial activity by measuring Norfloxacin MIC at sub MIC relative to norfloxacin MIC alone
[14] = target: T1, Quinolone resistance protein NorA (Staphylococcus aureus); experiment: Inhibition of NorA in Staphylococcus aureus 1199B assessed as potentiation of ethidium bromide-induced antibacterial activity by measuring ethidium bromide MIC at sub MIC
[15] = target: T1, Quinolone resistance protein NorA (Staphylococcus aureus); experiment: Inhibition of NorA in Staphylococcus aureus 1199B infected human THP-1 cells assessed as potentiation of norfloxacin-induced bactericidal activity by measuring reduction in bacterial count at modulatory concentration measured after 24 hrs; type: cell-based
[16] = target: T1, Quinolone resistance protein NorA (Staphylococcus aureus); experiment: Inhibition of NorA in Staphylococcus aureus 1199B infected human THP-1 cells assessed as potentiation of 3.1 ug/ml norfloxacin-induced bactericidal activity by measuring log reduction in bacterial count at 15.6 ug/ml measured after 24 hrs relative to control; type: cell-based; settings: dose 15.6 µg/ml
[17] = target: T1, Quinolone resistance protein NorA (Staphylococcus aureus); experiment: Inhibition of NorA in Staphylococcus aureus 1199B infected human THP-1 cells assessed as potentiation of norfloxacin-induced bactericidal activity by measuring reduction in intracellular proliferation at modulatory concentration measured after 24 hrs; type: cell-based
[18] = target: T1, Quinolone resistance protein NorA (Staphylococcus aureus); experiment: Inhibition of NorA in Staphylococcus aureus 1199B infected human THP-1 cells assessed as potentiation of norfloxacin-induced bactericidal activity by measuring log reduction in bacterial count measured after 24 hrs relative to vancomycin; type: cell-based
[19] = target: T1, Quinolone resistance protein NorA (Staphylococcus aureus); experiment: Inhibition of NorA in Staphylococcus aureus 1199B assessed as potentiation of norfloxacin-induced morphological changes by measuring appearance of lysed cell at sub MIC by field emission scanning electron microscopy
Staphylococcus aureus [20] = experiment: Antibacterial activity against Staphylococcus aureus K1758 measured after 24 hrs by Muller Hinton broth based MTT assay; type: functional
Staphylococcus aureus [21] = experiment: Down regulation of NorA gene expression in Staphylococcus aureus 1199B at 1.55 ug/ml measured after 2 hrs by qRT-PCR analysis relative to control; type: functional; settings: dose 1.55 µg/ml
[22] = target: T1, Quinolone resistance protein NorA (Staphylococcus aureus); experiment: Inhibition of NorA in Staphylococcus aureus 1199B assessed as potentiation of 3.1 ug/mL ethidium bromide-induced bactericidal activity by measuring log reduction in bacterial count at sub MIC measured within 4 hrs by time-kill kinetics assay
[23] = target: T1, Quinolone resistance protein NorA (Staphylococcus aureus); experiment: Inhibition of NorA in Staphylococcus aureus 1199B assessed as potentiation of ethidium bromide-induced antibacterial activity by measuring fractional inhibitory concentration
[24] = target: T1, Quinolone resistance protein NorA (Staphylococcus aureus); experiment: Inhibition of NorA in Staphylococcus aureus 1199B assessed as potentiation of 3.1 ug/mL norfloxacin-induced bactericidal activity by measuring log reduction in bacterial count at 7.8 ug/mL measured after 4 hrs by time-kill kinetics assay; settings: dose 7.8 µg/ml
[25] = target: T1, Quinolone resistance protein NorA (Staphylococcus aureus); experiment: Inhibition of NorA in Staphylococcus aureus 1199B assessed as accumulation of ethidium bromide at 2.5 ug/ml by measuring fluorescence intensity measured at 5 mins interval for 40 mins by fluorescence spectrophotometry; settings: dose 2.5 µg/ml
[26] = target: T1, Quinolone resistance protein NorA (Staphylococcus aureus); experiment: Inhibition of NorA in Staphylococcus aureus 1199B assessed as accumulation of norfloxacin at 2.5 ug/ml by measuring fluorescence intensity measured at 5 mins interval for 40 mins by fluorescence spectrophotometry; settings: dose 2.5 µg/ml
[27] = target: T1, Quinolone resistance protein NorA (Staphylococcus aureus); experiment: Inhibition of NorA in Staphylococcus aureus 1199B assessed as potentiation of 3.1 ug/mL norfloxacin-induced bactericidal activity by measuring log reduction in bacterial count at 7.8 ug/mL measured after 8 hrs by time-kill kinetics assay; settings: dose 7.8 µg/ml
Staphylococcus aureus [28] = experiment: Down regulation of NorA gene expression in Staphylococcus aureus 1199B at 3.1 ug/ml measured after 2 hrs in presence of norfloxacin by qRT-PCR analysis relative to norfloxacin; type: functional; settings: dose 3.1 µg/ml
[29] = target: T1, Quinolone resistance protein NorA (Staphylococcus aureus); experiment: Inhibition of NorA in Staphylococcus aureus 1199B infected human THP-1 cells assessed as potentiation of 6.2 ug/ml norfloxacin-induced bactericidal activity by measuring log reduction in bacterial count at 15.6 ug/ml measured after 24 hrs relative to control; type: cell-based; settings: dose 15.6 µg/ml
[30] = target: T1, Quinolone resistance protein NorA (Staphylococcus aureus); experiment: Inhibition of NorA in Staphylococcus aureus 1199B assessed as potentiation of ethidium bromide-induced bactericidal activity at 15.6 ug/ml measured within 8 hrs by time-kill kinetics assay; settings: dose 15.6 µg/ml
Staphylococcus aureus [31] = experiment: Down regulation of NorA gene expression in Staphylococcus aureus 1199B at 3.1 ug/ml measured after 2 hrs by qRT-PCR analysis relative to control; type: functional; settings: dose 3.1 µg/ml
[32] = target: T1, Quinolone resistance protein NorA (Staphylococcus aureus); experiment: Inhibition of NorA in Staphylococcus aureus 1199B assessed as potentiation of norfloxacin-induced morphological changes by measuring appearance of rough and dented cell at sub MIC by field emission scanning electron microscopy

SMILES | MIC (Staphylococcus aureus [1]) [µg/mL] | fold change (FC) [2] | Activity (Staphylococcus aureus [3]) | MIC (Staphylococcus aureus [5]) [µg/mL] | fold change (FC) [6] | inhibition [7] | fractional inhibitory concentration index (FICI) [8] | Flu intensity [9] | viability at 24 h, 50 ug/mL [10] [%] | MIC [11] [µg/mL] | Flu intensity [12] | fold change (FC) [13] | MIC [14] [µg/mL] | Activity [15] [log10CFU/ml] | inhibition [17] | FC [18] | MIC (Staphylococcus aureus [20]) [µg/mL] | fractional inhibitory concentration index (FICI) [23] | also measured
Fc1ccccc1C1=NC(c2ccco2)Nc2ccc(Cl)cc21 (configuration not stated) | 125 (≈ 383 µM) | 16 | Active | 500 (≈ 1530 µM) | 4 | Active | 0.078 | 248 | 95.3 | 3.1 | 28700 | 16 | 3.1 | 4.68 | Active | 3 | 3.9 (≈ 11.9 µM) | 0.125 | fold change (FC) (Staphylococcus aureus [4]): 9; FC [16]: 5; inhibition [19]: Active; fold change (FC) (Staphylococcus aureus [21]): 8; Activity [22]: > 3 log10CFU/ml; Activity [24]: > 3 log10CFU/ml
N#CC(C#N)=NNc1cccc(Cl)c1 [CARBONYL CYANIDE M-CHLOROPHENYLHYDRAZONE] | – | 16 | – | 20 (≈ 97.7 µM) | – | – | 0.625 | – | – | 6.2 | – | 8 | 3.1 | – | – | – | – | 0.562 | Flu intensity [25]: 149; Flu intensity [26]: 695
C=CCOc1ccc(C2N=C(c3ccccc3)c3cc(Cl)ccc3N2C)cc1 (configuration not stated) | 125 (≈ 321 µM) | 4 | Active | 500 (≈ 1290 µM) | 4 | Active | 0.141 | 173 | 94.8 | 6.2 | 15400 | 8 | 12.5 | 4.25 | Active | 3 | 31.2 (≈ 80.2 µM) | 0.281 | Activity [27]: > 3 log10CFU/ml; fold change (FC) (Staphylococcus aureus [28]): 9; FC [29]: 5; inhibition [30]: Active; fold change (FC) (Staphylococcus aureus [31]): 8; inhibition [32]: Active
